Measurements reported in ChEMBL document CHEMBL4002586, “Aurone Mannich base derivatives as promising multifunctional agents with acetylcholinesterase inhibition, anti-β-amyloid aggragation and neuroprotective properties for the treatment of Alzheimer's disease” (Eur J Med Chem, 2017).
Activity calls are given as the source filed them. The calls are words filed in the database; no cut-off is given here.

Experiments:
[1] = biological target: T1, Amine oxidase [flavin-containing] A (Homo sapiens, UniProt P21397); test: Inhibition of recombinant human MAO-A expressed in baculovirus infected BTI insect cells at 10 uM using kynuramine as substrate incubated for 30 mins by fluorescence assay relative to control; details: 0.5 h
T1 sequence (P21397 whole entry): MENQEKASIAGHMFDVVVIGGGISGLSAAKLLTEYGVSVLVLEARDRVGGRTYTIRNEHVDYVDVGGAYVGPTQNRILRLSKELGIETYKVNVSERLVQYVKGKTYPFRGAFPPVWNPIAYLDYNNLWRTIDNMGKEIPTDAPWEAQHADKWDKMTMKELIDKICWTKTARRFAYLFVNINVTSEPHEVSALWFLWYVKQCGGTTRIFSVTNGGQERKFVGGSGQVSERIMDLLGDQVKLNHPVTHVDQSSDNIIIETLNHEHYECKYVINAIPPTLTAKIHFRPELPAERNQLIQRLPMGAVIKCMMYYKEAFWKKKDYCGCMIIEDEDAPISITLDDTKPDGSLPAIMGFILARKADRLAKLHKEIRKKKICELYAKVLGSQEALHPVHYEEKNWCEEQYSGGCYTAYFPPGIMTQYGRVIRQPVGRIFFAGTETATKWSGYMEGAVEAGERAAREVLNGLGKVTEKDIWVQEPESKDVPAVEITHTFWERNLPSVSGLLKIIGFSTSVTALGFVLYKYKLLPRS

[2] = biological target: butyrylcholinesterase (BuChE) (Rattus norvegicus, UniProt Q9JKC1); test: Inhibition of BuChE in rat serum at 50 uM using butyrylthiocholine as substrate measured after 15 mins by Ellman's method relative to control; details: probe butyrylthiocholine
[3] = Antioxidant activity assessed as inhibition of AAPH-induced peroxyl radical generation at 5 uM measured as trolox equivalent preincubated for 15 mins followed by AAPH addition measured every 60 secs for 90 mins by ORAC-FL assay; type: functional
Acetylcholinesterase [4] = biological target: T2, Acetylcholinesterase (Rattus norvegicus, UniProt P37136); test: Inhibition of AChE in rat brain cortex homogenates using acetylthiocholine iodide as substrate in presence of BuChE inhibitor tetraisopropyl pyrophosphoramide measured after 15 mins by Ellman's method
T2 sequence (P37136 whole entry): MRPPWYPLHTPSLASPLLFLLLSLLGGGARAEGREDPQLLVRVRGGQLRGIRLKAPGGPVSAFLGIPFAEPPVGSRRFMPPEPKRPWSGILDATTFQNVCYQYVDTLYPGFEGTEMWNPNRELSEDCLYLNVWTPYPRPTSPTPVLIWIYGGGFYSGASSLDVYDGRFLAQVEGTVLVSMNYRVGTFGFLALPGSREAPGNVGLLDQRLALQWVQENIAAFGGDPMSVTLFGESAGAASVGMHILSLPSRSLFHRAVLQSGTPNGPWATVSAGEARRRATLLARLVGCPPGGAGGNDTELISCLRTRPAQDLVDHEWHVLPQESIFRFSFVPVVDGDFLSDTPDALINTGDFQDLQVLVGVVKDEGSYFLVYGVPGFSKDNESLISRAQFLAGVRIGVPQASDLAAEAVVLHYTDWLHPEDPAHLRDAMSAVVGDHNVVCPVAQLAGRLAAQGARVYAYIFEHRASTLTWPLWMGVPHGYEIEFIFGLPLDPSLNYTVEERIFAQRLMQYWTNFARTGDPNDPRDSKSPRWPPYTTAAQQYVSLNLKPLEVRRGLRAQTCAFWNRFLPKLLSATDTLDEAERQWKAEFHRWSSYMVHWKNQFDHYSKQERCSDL

[5] = biological target: T3, Amine oxidase [flavin-containing] B (Homo sapiens, UniProt P27338); test: Inhibition of recombinant human MAO-B expressed in baculovirus infected BTI insect cells at 10 uM using kynuramine as substrate incubated for 30 mins by fluorescence assay relative to control; details: 0.5 h
T3 sequence (P27338 whole entry): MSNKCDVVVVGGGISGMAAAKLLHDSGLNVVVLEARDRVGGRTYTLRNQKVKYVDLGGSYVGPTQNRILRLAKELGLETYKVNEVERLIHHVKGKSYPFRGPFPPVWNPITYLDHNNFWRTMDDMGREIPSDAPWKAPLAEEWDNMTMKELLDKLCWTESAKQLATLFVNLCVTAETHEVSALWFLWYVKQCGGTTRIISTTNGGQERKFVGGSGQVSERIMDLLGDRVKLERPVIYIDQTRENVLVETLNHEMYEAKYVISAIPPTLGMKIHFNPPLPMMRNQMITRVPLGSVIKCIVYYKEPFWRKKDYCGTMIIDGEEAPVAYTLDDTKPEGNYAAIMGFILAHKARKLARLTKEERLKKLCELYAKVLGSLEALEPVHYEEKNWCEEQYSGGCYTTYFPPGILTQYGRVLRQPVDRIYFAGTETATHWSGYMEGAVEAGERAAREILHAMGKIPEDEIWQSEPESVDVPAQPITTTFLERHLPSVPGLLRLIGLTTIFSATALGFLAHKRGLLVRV

[6] = Inhibition of Cu2+-mediated aggregation of human amyloid beta (1 to 42 residues) at 25 uM after 24 hrs by thioflavin T-based fluorometric assay relative to control; type: functional
[7] = biological target: Amyloid-beta precursor protein (Homo sapiens) (UniProt P05067); test: Inhibition of self-induced aggregation of HFIP-treated human amyloid beta (1 to 42 residues) at 25 uM after 24 hrs by thioflavin T-based fluorometric assay relative to control
Acetylcholinesterase [8] = biological target: Acetylcholinesterase (Electrophorus electricus, UniProt O42275); test: Inhibition of Electrophorus electricus AChE using acetylthiocholine iodide as substrate measured after 15 mins by Ellman's method
Acetylcholinesterase [9] = biological target: Acetylcholinesterase (Homo sapiens, UniProt P22303); test: Inhibition of human erythrocyte AChE using acetylthiocholine iodide as substrate measured after 15 mins by Ellman's method
[10] = biological target: Acetylcholinesterase (Electrophorus electricus) (UniProt O42275); test: Inhibition of Electrophorus electricus AChE at 50 uM using acetylthiocholine iodide as substrate measured after 15 mins by Ellman's method relative to control
[11] = biological target: T4, Acetylcholinesterase (Rattus norvegicus) (UniProt P37136); test: Inhibition of AChE in rat brain cortex homogenates at 50 uM using acetylthiocholine iodide as substrate in presence of BuChE inhibitor tetraisopropyl pyrophosphoramide measured after 15 mins by Ellman's method relative to control
T4 sequence (whole entry): T2 sequence (P37136 whole entry)

PC-12 [12] = test: Neuroprotective activity against H2O2-induced damage in rat PC12 cells assessed as reduction in LDH release at 100 uM pretreated for 2 hrs followed by H2O2 challenge measured after 24 hrs; type: functional, cell-based
PC-12 [13] = test: Neuroprotective activity against H2O2-induced damage in rat PC12 cells assessed as increase in cell viability at 100 uM pretreated for 2 hrs followed by H2O2 challenge measured after 24 hrs by MTT assay; type: functional, cell-based
[14] = Metal chelating activity assessed as compound-Fe2+ complex formation at 37.5 uM in presence of FeSO4 after 30 mins by UV-visible spectrophotometric analysis; type: functional
[15] = Metal chelating activity assessed as compound-Cu2+ complex formation at 37.5 uM in presence of CuCl2 after 30 mins by UV-visible spectrophotometric analysis; type: functional
[16] = Metal chelating activity assessed as compound-Al3+ complex formation at 37.5 uM in presence of AlCl3 after 30 mins by UV-visible spectrophotometric analysis; type: functional
[17] = Permeability of compound at 100 ug/ml after 18 hrs by PAMPA; type: physicochemical; details: read-out: permeability
[18] = Metal chelating activity assessed as compound-Zn2+ complex formation at 37.5 uM in presence of ZnCl2 after 30 mins by UV-visible spectrophotometric analysis; type: functional
[19] = Metal chelating activity assessed as mole fraction of compound required to show 1:1 stoichiometry for Cu2+-compound complex at 37.5 uM after 30 mins by UV-vis spectrophotometric method; type: functional

Acetylcholinesterase (Homo sapiens, UniProt P22303), sequence (P22303 whole entry): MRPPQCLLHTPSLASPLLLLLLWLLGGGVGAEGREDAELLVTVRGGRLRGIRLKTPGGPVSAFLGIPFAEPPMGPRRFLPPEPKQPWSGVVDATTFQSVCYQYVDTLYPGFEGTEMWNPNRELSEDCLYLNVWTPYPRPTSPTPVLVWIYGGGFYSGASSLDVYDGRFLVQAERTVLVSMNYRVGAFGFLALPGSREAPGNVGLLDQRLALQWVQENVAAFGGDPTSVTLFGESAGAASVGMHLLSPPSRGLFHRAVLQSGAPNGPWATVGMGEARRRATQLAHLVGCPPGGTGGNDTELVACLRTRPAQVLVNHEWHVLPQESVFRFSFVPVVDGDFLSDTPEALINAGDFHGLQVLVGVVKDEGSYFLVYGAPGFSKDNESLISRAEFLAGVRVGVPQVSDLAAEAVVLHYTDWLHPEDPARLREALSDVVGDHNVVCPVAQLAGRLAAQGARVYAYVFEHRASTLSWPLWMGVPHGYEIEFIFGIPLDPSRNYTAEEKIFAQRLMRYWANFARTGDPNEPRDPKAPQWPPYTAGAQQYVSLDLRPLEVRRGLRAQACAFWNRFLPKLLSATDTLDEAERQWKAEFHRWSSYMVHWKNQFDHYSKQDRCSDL
Amyloid-beta precursor protein (Homo sapiens), sequence (P05067 whole entry, the tested form may be a part): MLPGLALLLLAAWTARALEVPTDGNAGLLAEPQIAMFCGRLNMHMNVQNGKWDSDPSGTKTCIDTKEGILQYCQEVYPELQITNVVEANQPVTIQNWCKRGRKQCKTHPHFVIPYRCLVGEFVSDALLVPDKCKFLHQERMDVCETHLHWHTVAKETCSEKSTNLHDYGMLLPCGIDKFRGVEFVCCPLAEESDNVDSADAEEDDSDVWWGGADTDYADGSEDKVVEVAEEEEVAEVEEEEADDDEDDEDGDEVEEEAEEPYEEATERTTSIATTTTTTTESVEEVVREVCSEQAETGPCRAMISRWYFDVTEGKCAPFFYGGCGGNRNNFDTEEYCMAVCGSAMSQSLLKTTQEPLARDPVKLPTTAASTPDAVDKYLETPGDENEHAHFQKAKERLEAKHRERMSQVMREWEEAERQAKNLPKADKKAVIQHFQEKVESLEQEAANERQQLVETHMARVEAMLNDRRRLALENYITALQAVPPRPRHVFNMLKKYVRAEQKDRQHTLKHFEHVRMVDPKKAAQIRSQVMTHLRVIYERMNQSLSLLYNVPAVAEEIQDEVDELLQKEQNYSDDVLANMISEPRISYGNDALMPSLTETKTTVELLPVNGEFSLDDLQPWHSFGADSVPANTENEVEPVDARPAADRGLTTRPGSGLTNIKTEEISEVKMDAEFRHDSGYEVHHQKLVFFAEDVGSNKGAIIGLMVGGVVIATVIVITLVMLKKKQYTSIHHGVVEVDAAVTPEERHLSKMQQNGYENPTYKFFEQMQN
Acetylcholinesterase (Electrophorus electricus, UniProt O42275), sequence (O42275 whole entry): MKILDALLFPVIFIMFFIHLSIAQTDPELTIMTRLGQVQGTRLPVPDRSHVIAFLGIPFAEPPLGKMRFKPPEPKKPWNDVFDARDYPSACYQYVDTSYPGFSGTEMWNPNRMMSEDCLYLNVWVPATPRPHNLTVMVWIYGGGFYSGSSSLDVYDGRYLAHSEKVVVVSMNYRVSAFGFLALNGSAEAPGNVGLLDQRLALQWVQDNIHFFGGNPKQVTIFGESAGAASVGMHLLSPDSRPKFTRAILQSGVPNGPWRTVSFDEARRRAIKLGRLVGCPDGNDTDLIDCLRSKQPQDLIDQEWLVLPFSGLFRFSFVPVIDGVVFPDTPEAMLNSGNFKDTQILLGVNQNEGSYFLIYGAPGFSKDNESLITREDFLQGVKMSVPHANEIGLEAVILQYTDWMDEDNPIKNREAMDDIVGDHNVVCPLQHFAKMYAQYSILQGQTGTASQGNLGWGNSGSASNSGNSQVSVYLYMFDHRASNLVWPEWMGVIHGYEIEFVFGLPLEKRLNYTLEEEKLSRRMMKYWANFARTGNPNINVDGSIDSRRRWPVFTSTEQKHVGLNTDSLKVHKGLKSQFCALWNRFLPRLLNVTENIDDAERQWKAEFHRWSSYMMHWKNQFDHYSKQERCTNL
butyrylcholinesterase (BuChE), sequence (Q9JKC1 whole entry): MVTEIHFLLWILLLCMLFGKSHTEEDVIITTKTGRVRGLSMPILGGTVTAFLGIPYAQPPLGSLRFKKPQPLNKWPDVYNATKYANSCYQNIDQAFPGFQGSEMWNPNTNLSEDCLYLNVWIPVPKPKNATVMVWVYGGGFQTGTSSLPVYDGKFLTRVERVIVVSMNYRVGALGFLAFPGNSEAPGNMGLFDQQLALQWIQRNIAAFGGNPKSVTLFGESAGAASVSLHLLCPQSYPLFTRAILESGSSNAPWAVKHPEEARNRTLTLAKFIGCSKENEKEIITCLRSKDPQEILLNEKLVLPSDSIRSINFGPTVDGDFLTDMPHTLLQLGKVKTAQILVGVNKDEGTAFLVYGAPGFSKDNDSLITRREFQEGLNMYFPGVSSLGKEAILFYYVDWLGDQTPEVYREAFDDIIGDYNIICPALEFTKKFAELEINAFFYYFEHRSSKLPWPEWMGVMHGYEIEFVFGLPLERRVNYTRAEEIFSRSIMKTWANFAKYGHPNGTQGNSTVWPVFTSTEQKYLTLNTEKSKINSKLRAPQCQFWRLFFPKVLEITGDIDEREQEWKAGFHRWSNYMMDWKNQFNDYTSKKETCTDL
Acetylcholinesterase (Electrophorus electricus), sequence (O42275 24-633 limits assumed): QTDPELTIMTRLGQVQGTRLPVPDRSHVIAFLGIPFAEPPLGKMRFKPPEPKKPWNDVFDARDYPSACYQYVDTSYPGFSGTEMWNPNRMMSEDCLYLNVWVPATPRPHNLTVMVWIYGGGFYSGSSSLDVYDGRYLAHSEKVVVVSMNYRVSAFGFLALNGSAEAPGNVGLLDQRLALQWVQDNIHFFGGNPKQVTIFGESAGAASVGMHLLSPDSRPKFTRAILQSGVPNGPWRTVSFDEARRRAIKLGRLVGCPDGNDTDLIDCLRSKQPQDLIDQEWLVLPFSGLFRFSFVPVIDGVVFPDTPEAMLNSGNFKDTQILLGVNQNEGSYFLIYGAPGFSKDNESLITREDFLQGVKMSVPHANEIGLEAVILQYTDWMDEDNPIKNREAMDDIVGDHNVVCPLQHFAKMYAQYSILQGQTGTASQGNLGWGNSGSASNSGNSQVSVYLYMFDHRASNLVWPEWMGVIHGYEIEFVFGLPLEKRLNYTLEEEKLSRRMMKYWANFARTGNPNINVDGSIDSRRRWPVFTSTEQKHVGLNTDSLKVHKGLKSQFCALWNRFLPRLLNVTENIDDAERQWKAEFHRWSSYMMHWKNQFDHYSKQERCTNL

| Structure (SMILES) | inhibition at 10 µM [1] | inhibition at 0.25 h, 50 µM [2] | Activity [3] | IC50 (Acetylcholinesterase [4]) | inhibition at 10 µM [5] | inhibition [6] | inhibition [7] | IC50 (Acetylcholinesterase [8]) | IC50 (Acetylcholinesterase [9]) | inhibition [10] | inhibition [11] | Activity (PC-12 [12]) | Activity (PC-12 [13]) | Activity [14] | Activity [15] | Activity [16] | Papp at 18 h, 100 ug/ml [17] | Activity [18] | Activity [19] |
| --- | --- | --- | --- | --- | --- | --- | --- | --- | --- | --- | --- | --- | --- | --- | --- | --- | --- | --- | --- |
| CCN(Cc1ccc(N(C)C)cc1)Cc1ccc(/C=C2\Oc3cc(OC)c(OC)cc3C2=O)cc1O | 6.8% | < 5% | 2.02 equiv | 288 µM | 19.2% | 68.5% | 80.5% | 431 µM | – | – | – | – | – | – | – | – | – | – | – |
| COc1cc2c(cc1OC)C(=O)/C(=C/c1cccc(O)c1)O2 | 17.2% | < 5% | 1.51 equiv | 131 µM | 37% | 28.9% | 33.6% | 36.3 µM | – | – | – | – | – | – | – | – | – | – | – |
| COc1cc2c(cc1OC)C(=O)/C(=C/c1ccc(CN3CCOCC3)c(O)c1)O2 | 12.1% | < 5% | 1.58 equiv | 8.66 µM | 3.3% | 28.5% | 31.5% | 20.2 µM | 6 µM | – | – | – | – | – | – | – | – | – | – |
| COc1cc2c(cc1OC)C(=O)/C(=C/c1ccc(CN3CCN(Cc4ccccc4)CC3)c(O)c1)O2 | 15.3% | < 5% | 1.01 equiv | – | 6.9% | 38.7% | 41.8% | – | – | < 5% | < 5% | – | – | – | – | – | – | – | – |
| COc1cc2c(cc1OC)C(=O)/C(=C/c1ccc(CN3CCN(C)CC3)c(O)c1)O2 | 9.2% | < 5% | 1.78 equiv | 16.3 µM | 1% | 35.1% | 38.6% | 11.9 µM | 14 µM | – | – | – | – | – | – | – | – | – | – |
| COc1cc2c(cc1OC)C(=O)/C(=C/c1ccc(O)cc1)O2 | 12.1% | < 5% | 1.52 equiv | 297 µM | 36.1% | 26.7% | 15.7% | 64.4 µM | – | – | – | – | – | – | – | – | – | – | – |
| COc1ccccc1CN(C)Cc1ccc(/C=C2\Oc3cc(OC)c(OC)cc3C2=O)cc1O | 16.3% | < 5% | 1.35 equiv | 74.4 µM | 8.4% | 55.8% | 55.1% | 28.9 µM | – | – | – | – | – | – | – | – | – | – | – |
| COc1cc2c(cc1OC)C(=O)/C(=C/c1ccc(CN(C)C)c(O)c1)O2 | 20.2% | < 5% | 2.02 equiv | 25.8 µM | 2.23% | 32.2% | 46.9% | 8.93 µM | 24.3 µM | – | – | – | – | – | – | – | – | – | – |
| COc1cc(/C=C/C(=O)CC(=O)/C=C/c2ccc(O)c(OC)c2)ccc1O | – | – | – | – | – | 67.2% | – | – | – | – | – | – | – | – | – | – | – | – | – |
| Cc1c(C)c2c(c(C)c1O)CCC(C)(C(=O)O)O2 (configuration not stated) | – | – | – | – | – | – | – | – | – | – | – | Active | Active | – | – | – | – | – | – |
| COc1cc2c(cc1OC)C(=O)/C(=C/c1ccc(CN(C)Cc3ccccc3)c(O)c1)O2 | 19.4% | < 5% | 1.62 equiv | 20 µM | 17.8% | 70.1% | 51.5% | 9.1 µM | 26.3 µM | – | – | – | – | – | – | – | – | – | – |
| COc1cc2c(cc1OC)C(=O)/C(=C/c1ccc(CN3CCCC3)c(O)c1)O2 | 62.9% | 19% | 1.79 equiv | 0.246 µM | 37.9% | 38.8% | 57.2% | 2.7 µM | 1.32 µM | – | – | – | – | – | – | – | – | – | – |
| CCN(Cc1ccc(/C=C2\Oc3cc(OC)c(OC)cc3C2=O)cc1O)Cc1ccccc1N(C)C | 15.3% | 19.6% | 1.56 equiv | 7.32 µM | 38.1% | 72.6% | 78.3% | 6.4 µM | 6.69 µM | – | – | – | – | Active | Active | Active | 12.2 ×10⁻⁶ cm/s | Active | 0.98 molar ratio |
| CCN(Cc1ccc(/C=C2\Oc3cc(OC)c(OC)cc3C2=O)cc1O)Cc1ccccc1OC | 9.7% | 5.21% | 1.47 equiv | 44.9 µM | 26.4% | 71.2% | 74.9% | 37 µM | – | – | – | – | – | – | – | – | – | – | – |
| CCN(CC)Cc1ccc(/C=C2\Oc3cc(OC)c(OC)cc3C2=O)cc1O | 22.7% | < 5% | 2.06 equiv | 0.108 µM | 7.2% | 23.6% | 47.5% | 0.486 µM | 0.7 µM | – | – | – | – | – | – | – | – | – | – |
| CCN1CCN(Cc2ccc(/C=C3\Oc4cc(OC)c(OC)cc4C3=O)cc2O)CC1 | 15.1% | < 5% | 1.61 equiv | 24 µM | 2.6% | 39.7% | 49.1% | 11.7 µM | 32.1 µM | – | – | – | – | – | – | – | – | – | – |
| CCN(Cc1ccccc1)Cc1ccc(/C=C2\Oc3cc(OC)c(OC)cc3C2=O)cc1O | 17% | < 5% | 1.17 equiv | 94.1 µM | 23.9% | 60.9% | 72.5% | 35.8 µM | – | – | – | – | – | – | – | – | – | – | – |
